From ChEMBL document CHEMBL1201862, “PubChem BioAssay data set” (2004)
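Step 1: Grow cells in 96-well plates. Step 2: Expose to compound for 48 hours at 5 concentrations. Step 3: Interpolate endpoints linearly; if unreached, use highest concentration. GI50: concentration for 50% inhibition of growth.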 Active and inactive are the calls of the source. Cut-off read from the data, not from the text of the source: active = GI50 up to about 1.1 µM and inactive = higher.

Tests used:
Experiment in all cases: growth of human tumour cells (NCI), 48 h
MDA-N = test system: MDA-N
T47D = test system: T47D
Malme-3M = test system: Malme-3M
MDA-MB-435 = test system: MDA-MB-435
Hs-578T = test system: Hs-578T
UACC-62 = test system: UACC-62
PC-3 = test system: PC-3
SK-MEL-5 = test system: SK-MEL-5
A549 = test system: A549
EKVX = test system: EKVX
TK-10 = test system: TK-10
SNB-75 = test system: SNB-75
NCI-H23 = test system: NCI-H23
OVCAR-5 = test system: OVCAR-5
UACC-257 = test system: UACC-257
MCF7 = test system: MCF7
HT-29 = test system: HT-29
U-251 = test system: U-251
HOP-92 = test system: HOP-92
RPMI-8226 = test system: RPMI-8226

| SMILES | GI50 (MDA-N) | GI50 (T47D) | GI50 (Malme-3M) | GI50 (MDA-MB-435) | GI50 (Hs-578T) | GI50 (UACC-62) | GI50 (PC-3) | GI50 (SK-MEL-5) | GI50 (A549) | GI50 (EKVX) | GI50 (TK-10) | GI50 (SNB-75) | GI50 (NCI-H23) | GI50 (OVCAR-5) | GI50 (UACC-257) | GI50 (MCF7) | GI50 (HT-29) | GI50 (U-251) | GI50 (HOP-92) | GI50 (RPMI-8226) |
| --- | --- | --- | --- | --- | --- | --- | --- | --- | --- | --- | --- | --- | --- | --- | --- | --- | --- | --- | --- | --- |
| Oc1c(N2CCOCC2)cc(-c2cc(N3CCOCC3)c(O)c3ccccc23)c2ccccc12 | 0.389 µM (active) | 12.8 µM (inactive) | 0.486 µM (active) | 1.38 µM (inactive) | 3.44 µM (inactive) | 2.13 µM (inactive) | 2.64 µM (inactive) | 0.422 µM (active) | 2.26 µM (inactive) | 11.7 µM (inactive) | 12.9 µM (inactive) | 2.26 µM (inactive) | 2.28 µM (inactive) | 2.86 µM (inactive) | 2.29 µM (inactive) | 2.12 µM (inactive) | 2.16 µM (inactive) | 1.82 µM (inactive) | – | – |
| C=C(Cl)/C(=C\Br)CCC(Cl)C(C)C.C=C(Cl)/C(=C\Cl)CCC(Cl)C(C)C (stereo not drawn) | 15 µM (inactive) | – | 15.1 µM (inactive) | 15.3 µM (inactive) | 11.9 µM (inactive) | 12.7 µM (inactive) | 19.8 µM (inactive) | 13.9 µM (inactive) | 28 µM (inactive) | 18.7 µM (inactive) | 19.8 µM (inactive) | 18 µM (inactive) | 14.6 µM (inactive) | 20.5 µM (inactive) | 13.6 µM (inactive) | 10.6 µM (inactive) | 17.7 µM (inactive) | 16.4 µM (inactive) | 15 µM (inactive) | – |
| O=C(N/C(=C/c1ccc(Cl)cc1)c1nc2ccccc2c(=O)n1Nc1ccc([N+](=O)[O-])cc1[N+](=O)[O-])c1ccccc1 | > 100 µM (inactive) | > 100 µM (inactive) | > 100 µM (inactive) | > 100 µM (inactive) | > 100 µM (inactive) | > 100 µM (inactive) | > 100 µM (inactive) | > 100 µM (inactive) | > 100 µM (inactive) | – | > 100 µM (inactive) | > 100 µM (inactive) | > 100 µM (inactive) | > 100 µM (inactive) | > 100 µM (inactive) | > 100 µM (inactive) | > 100 µM (inactive) | > 100 µM (inactive) | > 100 µM (inactive) | – |
| COc1ccc(N(c2ccc(C#N)cc2)c2ccc(C#N)cc2)cc1 | > 100 µM (inactive) | 4.57 µM (inactive) | – | > 100 µM (inactive) | > 100 µM (inactive) | > 100 µM (inactive) | > 100 µM (inactive) | > 100 µM (inactive) | > 100 µM (inactive) | > 100 µM (inactive) | > 100 µM (inactive) | > 100 µM (inactive) | 29.4 µM (inactive) | > 100 µM (inactive) | > 100 µM (inactive) | 26 µM (inactive) | 9.89 µM (inactive) | > 100 µM (inactive) | > 100 µM (inactive) | – |
| Cc1ccc(S(=O)(=O)NC(=O)NC(CCC(N)=O)C(=O)O)cc1 (stereo not drawn) | > 100 µM (inactive) | > 100 µM (inactive) | > 100 µM (inactive) | – | > 100 µM (inactive) | > 100 µM (inactive) | > 100 µM (inactive) | > 100 µM (inactive) | > 100 µM (inactive) | – | > 100 µM (inactive) | > 100 µM (inactive) | > 100 µM (inactive) | > 100 µM (inactive) | > 100 µM (inactive) | > 100 µM (inactive) | > 100 µM (inactive) | > 100 µM (inactive) | 64.3 µM (inactive) | > 100 µM (inactive) |
| Clc1ccc(/C=N/C23CC4CC(CC(C4)C2)C3)c(Cl)c1 | > 10 µM (inactive) | > 10 µM (inactive) | > 10 µM (inactive) | > 10 µM (inactive) | > 10 µM (inactive) | > 10 µM (inactive) | > 10 µM (inactive) | > 10 µM (inactive) | > 10 µM (inactive) | > 10 µM (inactive) | > 10 µM (inactive) | > 10 µM (inactive) | > 10 µM (inactive) | > 10 µM (inactive) | > 10 µM (inactive) | – | > 10 µM (inactive) | > 10 µM (inactive) | > 10 µM (inactive) | > 10 µM (inactive) |
| O=c1cc(-c2ccccc2F)[nH]c2ccc(N3CCCC3)cc12 | 0.0135 µM (active) | > 10 µM (inactive) | > 100 µM (inactive) | < 0.001 µM (active) | 0.0201 µM (active) | 0.0185 µM (active) | < 0.001 µM (active) | 0.0419 µM (active) | 0.0504 µM (active) | 0.00138 µM (active) | 0.237 µM (active) | 63.2 µM (inactive) | 0.00155 µM (active) | 0.1 µM (active) | 0.1 µM (active) | 0.00745 µM (active) | 0.0284 µM (active) | 0.0381 µM (active) | – | 0.0468 µM (active) |
